Test results from DBAASP.
In brackets after ≈: the same amount, converted by molar mass.

Experiments:
Assay in all cases: ≥ marks a high value that may be exact or a test limit, other limits are often not marked, values filed in µg/mL are converted to µM
[1] = tested on: Salmonella enterica subsp. enterica serovar Typhimurium ATCC 14028s
[2] = tested on: Aeromonas salmonicida 97-4
[3] = tested on: Pseudomonas aeruginosa K799
Escherichia coli UB1005 = tested on: Escherichia coli UB1005
[4] = tested on: Staphylococcus epidermidis C621
[5] = tested on: Aeromonas salmonicida 99-1
[6] = tested on: Pseudomonas aeruginosa Z61
Candida albicans C627 = tested on: Candida albicans C627
[7] = tested on: Salmonella enterica serovar typhimurium MS7953s
[8] = tested on: Staphylococcus aureus C623
[9] = tested on: Escherichia coli CGSC 4908
Escherichia coli DC2 = tested on: Escherichia coli DC2
[10] = tested on: Pseudomonas aeruginosa H547
[11] = tested on: Pseudomonas aeruginosa H744
[12] = tested on: Pseudomonas aeruginosa H374
[13] = tested on: Pseudomonas aeruginosa ATCC 27853
[14] = tested on: Burkholderia cepacia ATCC 25416
[15] = tested on: Candida albicans ATCC 10231
[16] = tested on: Bacillus subtilis ATCC 23857
[17] = tested on: Corynebacterium glutamicum ATCC 13032
[18] = tested on: Escherichia coli ATCC 25922
[19] = tested on: Staphylococcus aureus ATCC 9144
Micrococcus luteus = tested on: Micrococcus luteus
Aureobasidium pullulans = tested on: Aureobasidium pullulans
Bacillus megaterium = tested on: Bacillus megaterium

CC[C@H](C)[C@H](NC(=O)[C@H](C)NC(=O)CNC(=O)[C@H](CCCCN)NC(=O)[C@@H](NC(=O)[C@H](CC(C)C)NC(=O)[C@H](C)NC(=O)CNC(=O)[C@H](CC(C)C)NC(=O)[C@@H](N)Cc1ccccc1)[C@@H](C)CC)C(=O)N[C@@H](Cc1cnc[nH]1)C(=O)NCC(=O)NCC(=O)N[C@@H](CCCNC(=N)N)C(=O)N[C@@H](Cc1ccccc1)C(=O)N[C@H](C(=O)N[C@@H](Cc1cnc[nH]1)C(=O)NCC(=O)N[C@@H](CCSC)C(=O)N[C@H](C(=O)N[C@@H](CCC(N)=O)C(=O)N[C@@H](CC(N)=O)C(=O)N[C@@H](Cc1cnc[nH]1)C(=O)N[C@@H](Cc1cnc[nH]1)C(C)=O)[C@@H](C)CC)[C@@H](C)CC [FLGALIKGAIHGGRFIHGMIQNHH]
MIC [1]: 24.4 µM (≈ 64 µg/mL) | MIC [2]: 24.4 µM (≈ 64 µg/mL) | MIC [3]: 24.4 µM (≈ 64 µg/mL) | MIC (Escherichia coli UB1005): 24.4 µM (≈ 64 µg/mL) | MIC [4]: 12.2 µM (≈ 32 µg/mL) | MIC [5]: 24.4 µM (≈ 64 µg/mL) | MIC [6]: 12.2 µM (≈ 32 µg/mL) | MIC (Candida albicans C627): 24.4 µM (≈ 64 µg/mL) | MIC [7]: 24.4 µM (≈ 64 µg/mL) | MIC [8]: 12.2 µM (≈ 32 µg/mL) | MIC [9]: 24.4 µM (≈ 64 µg/mL) | MIC (Escherichia coli DC2): 24.4 µM (≈ 64 µg/mL)

CC[C@H](C)[C@H](NC(=O)[C@H](CC(C)C)NC(=O)[C@H](C)NC(=O)[C@@H]1CCCN1C(=O)[C@H](CC(C)C)NC(=O)CNC(=O)[C@@H](NC(=O)[C@@H](NC(=O)[C@H](CC(C)C)NC(=O)[C@@H](NC(=O)[C@H](CCCCN)NC(=O)[C@H](CCCCN)NC(=O)[C@H](C)NC(=O)[C@H](C)NC(=O)[C@H](CO)NC(=O)[C@@H](NC(=O)[C@H](CC(C)C)NC(=O)[C@H](CCCCN)NC(=O)[C@H](CCCCN)NC(=O)[C@@H](NC(=O)[C@H](Cc1ccccc1)NC(=O)[C@H](CO)NC(=O)[C@H](CCCCN)NC(=O)[C@H](Cc1c[nH]c2ccccc12)NC(=O)[C@@H](N)CCCCN)[C@@H](C)CC)[C@@H](C)O)C(C)C)[C@@H](C)O)[C@@H](C)O)C(=O)N[C@@H](CO)C(=O)O [KWKSFIKKLTSAAKKVLTTGLPALIS]
MIC [1]: 1.41 µM (≈ 4 µg/mL) | MIC [3]: 1.77 µM (≈ 5 µg/mL) | MIC (Escherichia coli UB1005): 0.707 µM (≈ 2 µg/mL) | MIC [6]: 1.06 µM (≈ 3 µg/mL) | MIC [10]: 2.83 µM (≈ 8 µg/mL) | MIC [11]: 1.41 µM (≈ 4 µg/mL) | MIC [12]: 1.41 µM (≈ 4 µg/mL) | MIC [13]: 4 µM (≈ 11.3 µg/mL) | MIC [14]: 22.6 µM (≈ 64 µg/mL)

C[C@H](NC(=O)[C@H](CCCCN)NC(=O)[C@H](Cc1c[nH]c2ccccc12)NC(=O)[C@H](Cc1c[nH]c2ccccc12)NC(=O)CNC(=O)[C@H](Cc1c[nH]c2ccccc12)NC(=O)[C@H](CCCCN)NC(=O)[C@H](CCCCN)NC(=O)CN)C(=O)N[C@@H](CCCCN)C(N)=O [GKKWGWWKAK]
MIC [15]: 49 µM (≈ 62.5 µg/mL) | MIC [16]: 3.06 µM (≈ 3.9 µg/mL) | MIC [17]: 3.06 µM (≈ 3.9 µg/mL) | MIC [18]: 49 µM (≈ 62.5 µg/mL) | MIC [19]: ≥ 196 µM | MIC (Micrococcus luteus): ≥ 49 µM | MIC (Aureobasidium pullulans): ≥ 49 µM | MIC (Bacillus megaterium): 0.785 µM (≈ 0.999 µg/mL) | MIC [13]: > 196 µM
